Measured values as given in US9789096B2, “Methods and compositions for selective and targeted cancer therapy” (Board of Regents of the University of Texas System, priority 2013, dated 2017).

What follows are compounds tested on H2122 (assay: Cell viability dose-response, H2122). Details: Homo sapiens, NCI-H2122, 12-point dose-response starting at 50 micromolar, 3-fold increments, in duplicate; read-out: toxicity data, H2122.
Type: cell-based, human
Experimental: (§1) FIG. 6A. […] Cell viability is plotted vs. compound concentration. Compound was added to cells plated at 15% confluence in 96-well plates in RPMI-1640 media supplemented with 5% Fetal Bovine Serum and 2 mM L-Glutamine. After 4 days of incubation, ATP levels were measured using Cell Titer Glo (Promega). Data are presented as the average of 2 replicates ±SEM.
(§2) Selectivity may be measured by the half maximal inhibitory concentration (IC50), which, as used herein, is a measure of the effectiveness of a compound in killing cells. This quantitative measure indicates how much of a particular compound is needed to kill a particular cell population by half (e.g., as indicated by the amount of ATP). […] The IC50 can be determined by constructing a dose-response curve. The lower the IC50, the higher the potency, and the greater the difference between IC50 values for different cell lines (e.g., sensitive lines vs. insensitive lines, and sensitive lines vs. normal lines) the greater the selectivity. […]
(§3) With this information, we synthesized and tested a series of small molecules derived in conception from the oxalamide and chromone scaffold including N-acyl ureas, as shown in Tables 6-8. Each compound was tested in a 12-point dose-response study starting at 50 micromolar and decreasing in 3-fold increments to sub-nanomolar concentrations, in duplicate. Additionally, one or more additional cell line was tested in the same way.

Row | SMILES | IC50
1 | COc1ccc(CCNC(=O)C(=O)Nc2ccc(OC)c(C)c2)cc1 [SW206970-1] | 0.809 µM
2 | COc1ccc(CCNC(=O)C(=O)Nc2ccc(C)cc2OC)cc1 [SW206971-1] | ≥ 49.5 µM
3 | COc1ccc(CCNC(=O)C(=O)Nc2ccc(Cl)c(OC)c2)cc1 [SW206973-1] | ≥ 49.5 µM
4 | COc1ccc(CCNC(=O)C(=O)Nc2ccc(Cl)c(C)c2)cc1 [SW206974-1] | 0.697 µM
5 | C#CCOc1ccc(CCNC(=O)C(=O)Nc2ccc(C(=O)c3ccccc3)cc2)cc1 [SW207038-2-A] | 3.17 µM
6 | COc1ccc(CCNC(=O)C(=O)Nc2ccc(C(=O)c3ccc(OC)cc3)cc2)cc1 [SW208009-1-A] | 0.081 µM
7 | O=C(NCCc1ccc(O)cc1)C(=O)Nc1ccc(Cl)cc1 [SW208023-1-A] | 0.257 µM
8 | COc1ccc(CCNC(=O)Nc2ccc(OC)cc2)cc1 [SW208024-1-A] | ≥ 49.5 µM
9 | COc1ccc(CCNC(=O)C(=O)NCc2ccc(Cl)cc2)cc1 [SW208025-1-A] | ≥ 49.5 µM
10 | COc1ccc(CNC(=O)C(=O)NCc2ccc(Cl)cc2)cc1 [SW208026-1-A] | ≥ 49.5 µM
11 | Cc1ccccc1CCNC(=O)C(=O)Nc1ccc(Cl)cc1 [SW208027-1-A] | ≥ 49.5 µM
12 | COc1ccc(CCNC(=O)C(=O)N(C)c2cccc(F)c2)cc1 [SW208028-1-A] | ≥ 49.5 µM
13 | COc1ccc(CCCNC(=O)Nc2ccc(OC)cc2)cc1 [SW208029-1-A] | ≥ 49.5 µM
14 | COc1ccc(CCNC(=O)C(=O)N2CCCCC2)cc1 [SW208030-1-A] | ≥ 49.5 µM
15 | COc1ccc(CCNC(=O)C(=O)NC2CC2)cc1 [SW208031-1-A] | ≥ 49.5 µM
16 | COc1ccc(CCNC(=O)C(=O)NC2CCC2)cc1 [SW208032-1-A] | ≥ 49.5 µM
17 | COc1ccc(CCNC(=O)C(=O)NC2CCCC2)cc1 [SW208033-1-A] | ≥ 49.5 µM

Row | SMILES | IC50
18 | COc1ccc(CCNC(=O)C(=O)NC2CCCCC2)cc1 [SW208034-1-A] | ≥ 49.5 µM
19 | COc1ccc(CCNC(=O)C(=O)NC2CCCCCC2)cc1 [SW208035-1-A] | ≥ 49.5 µM
20 | Cc1ccc(CCNC(=O)C(=O)Nc2ccc(Cl)cc2)cc1 [SW208036-1-A] | ≥ 49.5 µM
21 | O=C(NCCc1cccc(Cl)c1)C(=O)Nc1ccc(Cl)cc1 [SW208037-1-A] | ≥ 49.5 µM
22 | COc1ccc(CCNC(=O)COc2ccc(Cl)cc2)cc1 [SW208038-1-A] | ≥ 49.5 µM
23 | O=C(NCCc1ccc(F)cc1)C(=O)Nc1ccc(Cl)cc1 [SW208039-1-A] | 47.5 µM
24 | COc1ccc(CNC(=O)COc2ccc(Cl)cc2)cc1 [SW208040-1-A] | ≥ 49.5 µM
25 | COc1ccc(CCNC(=O)CNc2ccc(Cl)cc2)cc1 [SW208041-1-A] | 48.4 µM
26 | COc1ccc(CNC(=O)CNc2ccc(Cl)cc2)cc1 [SW208042-1-A] | ≥ 49.5 µM
27 | COc1ccc(CCNC(=O)NCc2ccccc2)cc1 [SW208043-2-A] | ≥ 49.5 µM
28 | COc1ccc(CCNC(=O)C(=O)N2CCOCC2)cc1 [SW208044-1-A] | ≥ 49.5 µM
29 | COc1ccc(CNC(=O)Nc2ccc(Cl)cc2)cc1 [SW208046-1-A] | ≥ 49.5 µM
30 | COc1ccc(CNC(=O)NCc2ccccc2)cc1 [SW208047-1-A] | ≥ 49.5 µM
31 | COc1ccc(CCNC(=O)C(=O)N2CCN(C)CC2)cc1 [SW208048-1-A] | ≥ 49.5 µM
32 | COc1ccc(CCNC(=O)C(=O)N2CCCC2)cc1 [SW208049-1-A] | ≥ 49.5 µM
33 | COc1ccc(CCNC(=O)c2nc3ccccc3[nH]2)cc1 [SW208050-1-A] | ≥ 49.5 µM

Same assay, conditions: Homo sapiens, NCI-H2122, read-out: toxicity data, H2122

Row | SMILES | IC50
34 | COc1ccc(CCNC(=O)Nc2ccc(Cl)cc2)cc1 [SW208045-1-A] | ≥ 49.5 µM

These compounds were tested on H1819 (assay: Cell viability dose-response, H1819). Details: Homo sapiens, NCI-H1819, 12-point dose-response starting at 50 micromolar, 3-fold increments, in duplicate; read-out: toxicity data, H1819.
Type: cell-based, human
Experimental: as §1, §2, §3

Row | SMILES | IC50
35 | COc1ccc(CCNC(=O)C(=O)Nc2ccc(OC)c(C)c2)cc1 [SW206970-1] | ≥ 49.5 µM
36 | COc1ccc(CCNC(=O)C(=O)Nc2ccc(C)cc2OC)cc1 [SW206971-1] | ≥ 49.5 µM
37 | COc1ccc(CCNC(=O)C(=O)Nc2ccc(Cl)c(OC)c2)cc1 [SW206973-1] | 49 µM
38 | COc1ccc(CCNC(=O)C(=O)Nc2ccc(Cl)c(C)c2)cc1 [SW206974-1] | ≥ 49.5 µM
39 | C#CCOc1ccc(CCNC(=O)C(=O)Nc2ccc(C(=O)c3ccccc3)cc2)cc1 [SW207038-2-A] | ≥ 49.5 µM
40 | COc1ccc(CCNC(=O)C(=O)Nc2ccc(C(=O)c3ccc(OC)cc3)cc2)cc1 [SW208009-1-A] | ≥ 49.5 µM
41 | O=C(NCCc1ccc(O)cc1)C(=O)Nc1ccc(Cl)cc1 [SW208023-1-A] | 7.74 µM
42 | COc1ccc(CCNC(=O)Nc2ccc(OC)cc2)cc1 [SW208024-1-A] | ≥ 49.5 µM
43 | COc1ccc(CCNC(=O)C(=O)NCc2ccc(Cl)cc2)cc1 [SW208025-1-A] | ≥ 49.5 µM
44 | COc1ccc(CNC(=O)C(=O)NCc2ccc(Cl)cc2)cc1 [SW208026-1-A] | ≥ 49.5 µM
45 | Cc1ccccc1CCNC(=O)C(=O)Nc1ccc(Cl)cc1 [SW208027-1-A] | ≥ 49.5 µM
46 | COc1ccc(CCNC(=O)C(=O)N(C)c2cccc(F)c2)cc1 [SW208028-1-A] | ≥ 49.5 µM
47 | COc1ccc(CCCNC(=O)Nc2ccc(OC)cc2)cc1 [SW208029-1-A] | ≥ 49.5 µM
48 | COc1ccc(CCNC(=O)C(=O)N2CCCCC2)cc1 [SW208030-1-A] | ≥ 49.5 µM
49 | COc1ccc(CCNC(=O)C(=O)NC2CC2)cc1 [SW208031-1-A] | ≥ 49.5 µM
50 | COc1ccc(CCNC(=O)C(=O)NC2CCC2)cc1 [SW208032-1-A] | ≥ 49.5 µM
51 | COc1ccc(CCNC(=O)C(=O)NC2CCCC2)cc1 [SW208033-1-A] | ≥ 49.5 µM

Row | SMILES | IC50
52 | COc1ccc(CCNC(=O)C(=O)NC2CCCCC2)cc1 [SW208034-1-A] | ≥ 49.5 µM
53 | COc1ccc(CCNC(=O)C(=O)NC2CCCCCC2)cc1 [SW208035-1-A] | ≥ 49.5 µM
54 | Cc1ccc(CCNC(=O)C(=O)Nc2ccc(Cl)cc2)cc1 [SW208036-1-A] | ≥ 49.5 µM
55 | O=C(NCCc1cccc(Cl)c1)C(=O)Nc1ccc(Cl)cc1 [SW208037-1-A] | ≥ 49.5 µM
56 | COc1ccc(CCNC(=O)COc2ccc(Cl)cc2)cc1 [SW208038-1-A] | ≥ 49.5 µM
57 | O=C(NCCc1ccc(F)cc1)C(=O)Nc1ccc(Cl)cc1 [SW208039-1-A] | ≥ 49.5 µM
58 | COc1ccc(CNC(=O)COc2ccc(Cl)cc2)cc1 [SW208040-1-A] | ≥ 49.5 µM
59 | COc1ccc(CCNC(=O)CNc2ccc(Cl)cc2)cc1 [SW208041-1-A] | ≥ 49.5 µM
60 | COc1ccc(CNC(=O)CNc2ccc(Cl)cc2)cc1 [SW208042-1-A] | ≥ 49.5 µM
61 | COc1ccc(CCNC(=O)NCc2ccccc2)cc1 [SW208043-2-A] | ≥ 49.5 µM
62 | COc1ccc(CCNC(=O)C(=O)N2CCOCC2)cc1 [SW208044-1-A] | ≥ 49.5 µM
63 | COc1ccc(CNC(=O)Nc2ccc(Cl)cc2)cc1 [SW208046-1-A] | ≥ 49.5 µM
64 | COc1ccc(CNC(=O)NCc2ccccc2)cc1 [SW208047-1-A] | ≥ 49.5 µM
65 | COc1ccc(CCNC(=O)C(=O)N2CCN(C)CC2)cc1 [SW208048-1-A] | ≥ 49.5 µM
66 | COc1ccc(CCNC(=O)C(=O)N2CCCC2)cc1 [SW208049-1-A] | ≥ 49.5 µM
67 | COc1ccc(CCNC(=O)c2nc3ccccc3[nH]2)cc1 [SW208050-1-A] | ≥ 49.5 µM

Same assay, conditions: Homo sapiens, NCI-H1819, read-out: toxicity data, H1819

Row | SMILES | IC50
68 | COc1ccc(CCNC(=O)Nc2ccc(Cl)cc2)cc1 [SW208045-1-A] | ≥ 49.5 µM
